Paper PMC11246197 (Journal of medicinal chemistry, 2024)
pEC50: −log10 of the molar value.

Tested on: SARS-CoV-2 Omicron variant BA.1
Format: cell-based
Details: read-out: EC50 against SARS-CoV-2 Omicron variant BA.1

Work on `CC(C)OC(=O)[C@H](C)N[P@](=O)(OC[C@H]1O[C@@](C#N)(c2ccc3c(N)ncnn23)[C@H](O)[C@@H]1O)Oc1ccccc1` [IsoRDV] yielded a pEC50 of 6.27.
